The source of these data is patent US20110263693A1, “CELASTROL, GEDUNIN, AND DERIVATIVES THEREOF AS HSP90 INHIBITORS” (DANA-FARBER CANCER INSTITUTE, INC., priority 2006, published 2011).

Assay [1] relates to gedunin signature. As to the kind of experiment: Connectivity Map query with the gedunin signature. The class given is cell-based, human. Also on record: key to gedunin score (connectivity score): connectivity score, based on Kolmogorov-Smirnov statistic. The following applies: for gedunin score (connectivity score): enrichment of the gedunin signature (20 μM gedunin at 6 hours, LNCaP) in the compound's Connectivity Map profiles, 6 hr treatment; for gedunin rank: rank by gedunin score among 164 Connectivity Map compounds. An excerpt: (§1) Indeed, a major challenge in cell-based chemical biology and chemical genomics is the identification of compounds' targets (Gardner et al., 2003). We hypothesized that gene expression signatures could be used to identify compound action based on the similarity of such compound-induced signatures to signatures of existing drugs of known mechanism. We therefore employed a collection of gene expression profiles of drug-treated cell lines that was developed in our lab, termed the Connectivity Map (Lamb et al., 2006). This database comprises 453 genome-wide Affymetrix expression profiles derived from the treatment of human cell lines with 164 small molecules, primarily FDA-approved drugs. A 6 hr treatment time was chosen in an attempt to capture the primary, and potentially mechanistic, effects of the compounds rather than the downstream phenotypic consequences.
(§2) In order to use the Connectivity Map to gain insight into celastrol and gedunin function, we first defined a gene expression signature of celastrol and gedunin activity. The expression signatures of celastrol and gedunin were derived by expression profiling of RNA from LNCaP cells treated with celastrol (1.25 μM), gedunin (20 μM), and vehicle (DMSO) for 6 hr; signatures were defined using comparative marker selection to identify transcripts that distinguished between the compound- and vehicle-treated profiles by the signal-to-noise (SNR) metric. The enrichment of these signatures in the gene expression profiles of the Connectivity Map database was then assessed using a gene enrichment metric, the connectivity score, based on the Kolmogorov-Smirnov statistic (Lamb et al., 2003).
(§3) The celastrol and gedunin signatures were developed from RMA-processed microarray data from LNCaP cells treated with 1.25 μM celastrol or 20 μM gedunin for 6 hours. Comparative marker selection was used to identify markers that distinguished celastrol- and/or gedunin-treated samples from vehicle-treated samples by the median SNR (Golub et al., 1999). The top 50 markers that increased and decreased relative to vehicle-treated controls were used as the signatures.
(§4) The current version of the Connectivity Map data set (build01) contains genome-wide expression data for 453 treatment and vehicle control pairs, representing 164 distinct small molecules. Cell treatments and Affymetrix profiling were predominantly carried out in MCF7 cells with 6 hr treatments as detailed (Table 4) (Lamb et al., 2006). Enrichment of the induced and repressed genes of a signature within each Connectivity Map treatment profile was estimated with a metric based on the Kolmogorov-Smirnov statistic as described (Lamb et al., 2003, Lamb et al., 2006). Connectivity Map data are available at www.broad.mit.edu/cmap/ and GEO (accession number GSE5258).
(§5) For the celastrol and gedunin signatures, RMA-processed data was filtered and thresholded (min fold change=2, min absolute change=50, floor=10, ceiling=16000). Comparative marker selection (GenePattern) was used to identify markers that distinguished celastrol- and/or gedunin-treated samples from vehicle-treated samples by the median SNR. The top fifty markers that increased and decreased relative to vehicle treated controls were used as the celastrol, gedunin, or joint celastrol/gedunin signatures.
(§6) The current version of The Connectivity Map dataset (build01) contains genome-wide expression data for 453 treatment and vehicle control pairs, representing 164 distinct small molecules. Cell treatments were predominantly carried out in the MCF7 cell line for 6 h as detailed in Table 4. Affymetrix profiling was then carried out as described (Lamb et al., 2006).

Assay [2] concerns celastrol signature. The experiment in a line: Connectivity Map query with the celastrol signature. The class given is cell-based, human. Also on record: key to celastrol score (connectivity score): connectivity score, based on Kolmogorov-Smirnov statistic. The conditions noted are these: for celastrol score (connectivity score): enrichment of the celastrol signature (1.25 μM celastrol at 6 h, LNCaP) in the compound's Connectivity Map profiles, 6 hr treatment; for celastrol rank: rank by celastrol score among 164 Connectivity Map compounds.
Source text: as §1, §2, §3, §4, §5, §6

Residues, ends and D or L forms follow the SMILES beside them. *: point of attachment. Cbz = O=C(OCc1ccccc1)*

Regarding `S=c1nc[nH]c2nc[nH]c12` [mercaptopurine], in assay [1], the “gedunin score (connectivity score)” value turned out to be 0.21. Besides, in assay [2], the “celastrol score (connectivity score)” value is given as −0.121.

With `N#CC(=C(N)Sc1ccccc1)C(C#N)=C(N)Sc1ccccc1` [U0125], in assay [1], the “gedunin score (connectivity score)” value worked out at 0 and the gedunin rank amounted to 122. Also, in assay [2], the “celastrol score (connectivity score)” value stood at 0 and the celastrol rank is 106.

With `O=C(c1ccc(OCCN2CCCCC2)cc1)c1c(-c2ccc(O)cc2)sc2cc(O)ccc12` [raloxifene], the “gedunin score (connectivity score)” value in assay [1] worked out at 0.292. Moreover, in assay [2], the “celastrol score (connectivity score)” value stood at 0.

`O=C(O)c1cc(/N=N/c2ccc(S(=O)(=O)Nc3ccccn3)cc2)ccc1O` [sulfasalazine]: in assay [1], the “gedunin score (connectivity score)” value is reported as 0. The “celastrol score (connectivity score)” value in assay [2] is on record as 0.

Regarding `CN(C)c1ccc(O)c2c1C[C@H]1C[C@H]3[C@H](N(C)C)C(O)=C(C(N)=O)C(=O)[C@@]3(O)C(O)=C1C2=O` [minocycline], the “gedunin score (connectivity score)” value in assay [1] was found to be 0. In assay [2], the “celastrol score (connectivity score)” value is reported as 0.

In the case of `Oc1cc(O)c2c(c1)OC(c1ccc(O)c(O)c1)C(O)C2` (single isomer, unassigned; (-)) [(−)-catechin], in assay [1], the “gedunin score (connectivity score)” value was determined as 0.457 and the gedunin rank amounted to 24. In assay [2], the “celastrol score (connectivity score)” value is reported as 0 and the celastrol rank is reported as 113.

Regarding `Oc1cccc2c(O)nccc12` [1,5-isoquinolinediol], the “gedunin score (connectivity score)” value in assay [1] is recorded as 0. Moreover, the “celastrol score (connectivity score)” value in assay [2] is listed as −0.608.

`CN[C@@H]1C[C@H]2O[C@@](C)([C@@H]1OC)n1c3ccccc3c3c4c(c5c6ccccc6n2c5c31)C(=O)NC4` [staurosporine]: in assay [1], the “gedunin score (connectivity score)” value turned out to be 0. Also, the “celastrol score (connectivity score)” value in assay [2] is listed as 0.092.

For the compound `O=S(=O)(c1cccc2cnccc12)N1CCCNCC1` [fasudil], in assay [1], the “gedunin score (connectivity score)” value came out at 0. Also, the “celastrol score (connectivity score)” value in assay [2] is given as 0.

Turning to `C[C@]12C=CC(=O)C=C1CC[C@@H]1[C@@H]2[C@@H](O)C[C@@]2(C)[C@H]1CC[C@]2(O)C(=O)CO` [prednisolone], the “gedunin score (connectivity score)” value in assay [1] is given as 0. The “celastrol score (connectivity score)” value in assay [2] was 0.

Take `CCCc1c(OCCCCc2nnn[nH]2)ccc(C(C)=O)c1O` [tomelukast]: in assay [1], the “gedunin score (connectivity score)” value is recorded as 0. For the same compound, the “celastrol score (connectivity score)” value in assay [2] was found to be 0.388.

Regarding `CC(=O)N(O)CCCCCNC(=O)CCC(=O)N(O)CCCCCNC(=O)CCC(=O)N(O)CCCCCN` [deferoxamine], the “gedunin score (connectivity score)” value in assay [1] is listed as 0. In addition, the “celastrol score (connectivity score)” value in assay [2] was −0.175.

`CN(C)CCCN1c2ccccc2Sc2ccc(Cl)cc21` [chlorpromazine]: in assay [1], the “gedunin score (connectivity score)” value turned out to be 0.218. Further, the “celastrol score (connectivity score)” value in assay [2] is listed as 0.08.

As for depudecin, the “gedunin score (connectivity score)” value in assay [1] came to 0.176. Further, the “celastrol score (connectivity score)” value in assay [2] was found to be 0.22.

As to `CO[C@H]1C[C@@H]2CC[C@@H](C)[C@@](O)(O2)C(=O)C(=O)N2CCCC[C@H]2C(=O)O[C@H]([C@H](C)C[C@@H]2CC[C@@H](O)[C@H](OC)C2)CC(=O)[C@H](C)/C=C(\C)[C@@H](O)[C@@H](OC)C(=O)[C@H](C)C[C@H](C)/C=C/C=C/C=C/1C` [sirolimus], the “gedunin score (connectivity score)” value in assay [1] is reported as 0. The “celastrol score (connectivity score)” value in assay [2] is on record as −0.283.

In the case of `COC(=O)CNC(=O)C(=O)OC` [dimelhyloxalylglycine], in assay [1], the “gedunin score (connectivity score)” value is on record as 0 and the gedunin rank is reported as 119. Further, in assay [2], the “celastrol score (connectivity score)” value is given as 0.326 and the celastrol rank was 44.

Turning to `O=C(/C=C/c1ccc(O)c(O)c1)c1ccc(O)cc1O` [butein], the “gedunin score (connectivity score)” value in assay [1] worked out at 0.45. Besides, the “celastrol score (connectivity score)” value in assay [2] stood at 0.295.

Take `CN1CCN(CCCN2c3ccccc3Sc3ccc(Cl)cc32)CC1` [prochlorperazine]: the “gedunin score (connectivity score)” value in assay [1] is on record as 0.507. Besides, the “celastrol score (connectivity score)” value in assay [2] amounted to 0.559.

In the case of `CSc1ccc2c(c1)N(CCC1CCCCN1C)c1ccccc1S2` (centres unmarked) [thioridazine], the “gedunin score (connectivity score)” value in assay [1] came to 0.522. The “celastrol score (connectivity score)” value in assay [2] is recorded as 0.308.

Regarding `Nc1ccc(O)c(C(=O)O)c1` [mesalazine], in assay [1], the “gedunin score (connectivity score)” value came to 0. Moreover, the “celastrol score (connectivity score)” value in assay [2] was 0.

With `CC(=O)O[C@H]1C(=O)[C@@]2(C)[C@H]([C@H](OC(=O)c3ccccc3)[C@]3(O)C[C@H](OC(=O)[C@H](O)[C@@H](NC(=O)c4ccccc4)c4ccccc4)C(C)=C1C3(C)C)[C@]1(OC(C)=O)CO[C@@H]1C[C@@H]2O` [paclitaxel], the “gedunin score (connectivity score)” value in assay [1] was found to be 0. In assay [2], the “celastrol score (connectivity score)” value is 0.319.

Turning to `C[C@H](CCC(=O)O)C[C@H](C)C[C@H](C)C(=O)/C=C(\O)[C@H](C)C[C@H](C)C/C=C/[C@@H](C)[C@@H](O)[C@@H](C)[C@@H](O)C[C@@H]1CC[C@@](C)([C@H]2CC[C@@](C)([C@@H](C)O)O2)O1` [ionomycin], in assay [1], the “gedunin score (connectivity score)” value was found to be 0.129. Also, the “celastrol score (connectivity score)” value in assay [2] was determined as 0.556.

`CC(Cc1ccc(O)c(O)c1)C(C)Cc1ccc(O)c(O)c1` (centres unmarked) [nordihydroguaiaretic acid]: the “gedunin score (connectivity score)” value in assay [1] was found to be 0.286. The “celastrol score (connectivity score)” value in assay [2] is 0.264.

On to `O=C(O)Cc1ccccc1Nc1c(Cl)cccc1Cl` [diclofenac], for which, in assay [1], the “gedunin score (connectivity score)” value is on record as −0.165. The “celastrol score (connectivity score)” value in assay [2] is on record as −0.197.

As for `CC(C)C[C@@H](C=O)NC(=O)[C@H](CC(C)C)NC(=O)[C@H](CC(C)C)NC(=O)OCc1ccccc1` [MG-132] (Cbz-Leu-Leu-Leu-aldehyde), in assay [1], the “gedunin score (connectivity score)” value is recorded as 0.912. For the same compound, the “celastrol score (connectivity score)” value in assay [2] was found to be 0.902.

Regarding `Clc1ccccc1C(c1ccccc1)(c1ccccc1)n1ccnc1` [clotrimazole], the “gedunin score (connectivity score)” value in assay [1] stood at 0.577. The “celastrol score (connectivity score)” value in assay [2] worked out at 0.557.

With `C[C@H]1c2cccc(O)c2C(=O)C2=C(O)[C@]3(O)C(=O)C(C(N)=O)=C(O)[C@@H](N(C)C)[C@@H]3[C@@H](O)[C@@H]21` [doxycycline], the “gedunin score (connectivity score)” value in assay [1] was 0. The “celastrol score (connectivity score)” value in assay [2] worked out at 0.

On to `Cc1ccc2c(c1)C(=O)C1(O)CCN(c3ccccc3)C1=N2` (centres unmarked) [blebbistatin], for which, in assay [1], the “gedunin score (connectivity score)” value came to 0 and the gedunin rank amounted to 107. In addition, in assay [2], the “celastrol score (connectivity score)” value amounted to 0 and the celastrol rank is recorded as 87.

For `CCCNC(=O)NS(=O)(=O)c1ccc(Cl)cc1` [chlorpropamide], the “gedunin score (connectivity score)” value in assay [1] worked out at 0. Besides, the “celastrol score (connectivity score)” value in assay [2] was determined as 0.

Turning to `COc1cc2ncnc(Nc3ccc(F)c(Cl)c3)c2cc1OCCCN1CCOCC1` [gefitinib], in assay [1], the “gedunin score (connectivity score)” value was 0. For the same compound, the “celastrol score (connectivity score)” value in assay [2] is given as −0.713.

With ikarugamycin, in assay [1], the “gedunin score (connectivity score)” value came out at 0 and the gedunin rank was found to be 124. Moreover, in assay [2], the “celastrol score (connectivity score)” value is 0.172 and the celastrol rank was 59.

As for `CCCCC/C=C/C=C1/C(=O)C=C[C@@H]1C/C=C\CCCC(=O)O` [15-delta prostaglandin J2], in assay [1], the “gedunin score (connectivity score)” value stood at 0.565 and the gedunin rank worked out at 9. In assay [2], the “celastrol score (connectivity score)” value amounted to 0.76 and the celastrol rank is 7.

`O=c1cc(N2CCOCC2)oc2c(-c3ccccc3)cccc12` [LY-294002]: in assay [1], the “gedunin score (connectivity score)” value was determined as 0. In assay [2], the “celastrol score (connectivity score)” value was −0.512.

Consider `CCOC(=O)C1=C(C)NC(C)=C(C(=O)OC)C1c1cccc(Cl)c1Cl` (centres unmarked) [felodipine], for which the “gedunin score (connectivity score)” value in assay [1] is on record as 0.171. Moreover, in assay [2], the “celastrol score (connectivity score)” value stood at 0.171.
